Measurements as given in the NIST ThermoML archive (doi:10.1016/j.jct.2011.01.016).

Key:
[1] = xn = mol fraction of the nth substance listed; details: 100 kPa, Liquid; for viscosity: Concentric cylinders viscometry; for mass density: Vibrating tube method
[2] = 101.33 kPa, Liquid; for viscosity: Concentric cylinders viscometry; for mass density: Vibrating tube method

CC(CC(C)(C)C)CP(=O)([O-])CC(C)CC(C)(C)C.CCCCCCCCCCCCCC[P+](CCCCCC)(CCCCCC)CCCCCC + O
[1], x2 = 0.876
Details	mass density [kg/m3]	viscosity [mPa·s]
298.15 K	907.3	173.82
303.15 K	903.9	128.58
308.15 K	900.5	97.03
313.15 K	897.2	74.52
318.15 K	893.8	58.16
323.15 K	890.4	46.06
328.15 K	887.1	37
333.15 K	883.6	30.09
338.15 K	880.2	24.76
343.15 K	876.8	20.59
348.15 K	873.4	17.3
353.15 K	869.9	14.66
358.15 K	866.5	12.53
363.15 K	863.1	10.78

CCCCCCCCCCCCCC[P+](CCCCCC)(CCCCCC)CCCCCC.O=S(=O)([N-]S(=O)(=O)C(F)(F)F)C(F)(F)F + O
[1], x2 = 0.088
Details	mass density [kg/m3]	viscosity [mPa·s]
298.15 K	1066.1	300.01
303.15 K	1062.4	224.6
308.15 K	1058.7	170.8
313.15 K	1055	132.06
318.15 K	1051.4	103.5
323.15 K	1047.7	82.08
328.15 K	1044	65.75
333.15 K	1040.4	53.41
338.15 K	1036.7	44.23
343.15 K	1033.1	37.14
348.15 K	1029.6	31.46
353.15 K	1026	26.9
358.15 K	1022.4	23.17
363.15 K	1018.8	20.09

CCCCCCCCCCCCCC[P+](CCCCCC)(CCCCCC)CCCCCC.N#C[N-]C#N [tetradecyl(trihexyl)phosphonium dicyanamide] + O
[1], x2 = 0.496
Details	mass density [kg/m3]	viscosity [mPa·s]
298.15 K	900.7	190.83
303.15 K	897.6	145.77
308.15 K	894.7	113.3
313.15 K	891.7	89.4
318.15 K	888.7	71.54
323.15 K	885.7	57.96
328.15 K	882.7	47.54
333.15 K	879.8	39.43
338.15 K	876.8	33.03
343.15 K	873.8	27.94
348.15 K	870.9	23.84
353.15 K	867.9	20.52
358.15 K	865	17.78
363.15 K	862	15.51

CCCCCCCCCCCCCC[P+](CCCCCC)(CCCCCC)CCCCCC.[Br-] [tetradecyltrihexylphosphonium bromide] + O
[1], x2 = 0.68
Details	mass density [kg/m3]	viscosity [mPa·s]
298.15 K	957	238.84
303.15 K	953.6	180.54
308.15 K	950.3	138.77
313.15 K	946.9	108.27
318.15 K	943.6	85.71
323.15 K	940.2	68.71
328.15 K	936.9	55.74
333.15 K	933.5	45.71
338.15 K	930.2	37.91
343.15 K	926.8	31.74
348.15 K	923.5	26.82
353.15 K	920.1	22.85
358.15 K	916.7	19.62
363.15 K	913.4	16.94

CCCCCCCCCCCCCC[P+](CCCCCC)(CCCCCC)CCCCCC.[Cl-] [trihexyl(tetradecyl)phosphonium chloride] + O
[1], x2 = 0.818
Details	mass density [kg/m3]	viscosity [mPa·s]
298.15 K	901.6	134.72
303.15 K	898.3	103.12
308.15 K	895	80.2
313.15 K	891.7	63.3
318.15 K	888.4	50.65
323.15 K	885.1	41.05
328.15 K	881.8	33.64
333.15 K	878.5	27.88
338.15 K	875.2	23.33
343.15 K	871.9	19.71
348.15 K	868.6	16.79
353.15 K	865.3	14.4
358.15 K	862	12.44
363.15 K	858.6	10.81

CCCCCCCCCC(=O)[O-].CCCCCCCCCCCCCC[P+](CCCCCC)(CCCCCC)CCCCCC [trihexyltetradecylphosphonium decanoate] + O
[1], x2 = 0.872
Details	mass density [kg/m3]	viscosity [mPa·s]
298.15 K	901.2	90.95
303.15 K	897.8	70.57
308.15 K	894.5	55.66
313.15 K	891.1	44.65
318.15 K	887.7	36.26
323.15 K	884.3	29.77
328.15 K	880.9	24.65
333.15 K	877.5	20.59
338.15 K	874	17.35
343.15 K	870.6	14.72
348.15 K	867.1	12.57
353.15 K	863.7	10.8
358.15 K	860.2	9.345
363.15 K	856.8	8.114

CCCCCCCCCCCCCC[P+](CCCCCC)(CCCCCC)CCCCCC.CS(=O)(=O)[O-] [trihexyltetradecylphosphonium methanesulfonate]
[2]
Details	mass density [kg/m3]	viscosity [mPa·s]
278.15 K	940.5	7526.5
283.15 K	937.4	4689.7
288.15 K	934.3	3040.4
293.15 K	931.2	2022.2
298.15 K	928.1	1379.4
303.15 K	925.1	962.83
308.15 K	922	686.13
313.15 K	918.9	498.53
318.15 K	915.9	369.02
323.15 K	912.9	277.77
328.15 K	909.9	212.37
333.15 K	907	164.79
338.15 K	904.1	129.63
343.15 K	901.2	103.34
348.15 K	898.3	83.37
353.15 K	895.3	68.01
358.15 K	892.4	56.06
363.15 K	889.4	46.65

CCCCCCCCCCCCCC[P+](CCCCCC)(CCCCCC)CCCCCC.CS(=O)(=O)[O-] [trihexyltetradecylphosphonium methanesulfonate] + O
[1], x2 = 0.825
Details	mass density [kg/m3]	viscosity [mPa·s]
298.15 K	935.1	126.55
303.15 K	931.8	97.43
308.15 K	928.4	76.18
313.15 K	925.1	60.41
318.15 K	921.7	48.54
323.15 K	918.4	39.48
328.15 K	915	32.49
333.15 K	911.6	27.02
338.15 K	908.2	22.69
343.15 K	904.8	19.23
348.15 K	901.4	16.45
353.15 K	898	14.16
358.15 K	894.6	12.28
363.15 K	891.2	10.71
